Results reported in patent US20130150376A1, “Novel Sultam Compounds” (PFIZER INC., priority 2010, published 2013).
Counter-ions that a name gives are not always drawn. Like-named read-outs stand apart in the source and are kept apart here.

Biological target: T1, BACE1 enzyme (soluble, truncated BACE enzyme, BACE1deltaTM96His) (Homo sapiens, UniProt P56817)
T1 construct: soluble, truncated BACE enzyme (BACE1deltaTM96His); His; made in house
Assay: BACE1 Fluorescent Polarization (FP) Assay
Assay type: biochemical
Details: geometric mean of 2-4 IC50 determinations unless footnoted (^2: 5-6 determinations; ^4: single determination)
Source text: BACE1 Fluorescent Polarization (FP) Assay
The fluorescently tagged synthetic substrate, Biotin-GLTNIKTEEISEISŶEVEFR-C[oregon green]KK-OH can be efficiently cleaved by the beta-secretase enzyme and is therefore useful to assay beta-secretase activity in the presence or absence of inhibitory compounds. The his tagged BACE1 enzyme was affinity purified material from conditioned media of CHO-K1 cells that had been transfected to express soluble, truncated BACE enzyme (BACE1deltaTM96His). Compounds were incubated in a ½ log dose response (from a top concentration of 100 μM) with BACE1 enzyme (0.1 nM final) and the biotinylated fluorescent peptide substrate (150 nM final) in assay buffer containing 100 mM sodium acetate, pH 4.5 (brought to pH with acetic acid), and 0.001% Tween-20. Total reaction volumes of 30 μL were carried out in 384-well black plates (Thermo Scientific 4318). Plates were covered and incubated for 3 hours at 37° C. The reactions were then stopped by addition of 30 μL of 1.5 μM Streptavidin (Pierce, 21125). After a 10 minute incubation at room temperature, plates were read on a PerkinElmer Envision for fluorescence polarization (Ex485 nm/Em530 nm). The activity of the beta-secretase enzyme is detected by changes in the fluorescence polarization (Δ mP) that occur when the substrate is cleaved by the enzyme.

[1] = 11-point curve, read-out: BACE activity, 11-point curve, IC50
[2] = 8-point curve, read-out: BACE activity, 8-point curve, IC50

T1 sequence (P56817 46-457): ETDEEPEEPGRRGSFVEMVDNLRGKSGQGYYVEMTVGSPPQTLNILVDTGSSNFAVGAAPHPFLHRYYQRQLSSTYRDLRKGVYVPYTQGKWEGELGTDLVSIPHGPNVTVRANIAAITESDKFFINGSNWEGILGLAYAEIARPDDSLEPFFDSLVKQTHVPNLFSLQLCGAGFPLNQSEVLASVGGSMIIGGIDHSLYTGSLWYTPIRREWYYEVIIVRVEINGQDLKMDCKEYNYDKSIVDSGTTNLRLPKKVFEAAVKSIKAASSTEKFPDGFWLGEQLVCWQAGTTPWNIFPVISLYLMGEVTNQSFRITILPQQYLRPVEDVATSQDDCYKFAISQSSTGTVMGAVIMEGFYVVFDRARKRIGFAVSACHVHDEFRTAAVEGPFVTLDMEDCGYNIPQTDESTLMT

IC50 [1] [nM]	IC50 [2] [nM]	Compound
2670		C[C@H]1C[C@]2(CCN1Cc1ccc(O)c(C3CCC3)c1)CCS(=O)(=O)N2c1cnccn1 [Example 87, 2-cyclobutyl-4-{[(5R,7S)-7-methyl-2,2-dioxido-1-(pyrazin-2-yl)-2-thia-1,8-diazaspiro[4.5]dec-8-yl]methyl}phenol]
715		Cc1cccnc1-c1cc(CN2CC[C@@]3(C[C@@H]2C)C(=O)CS(=O)(=O)N3c2cccc(F)c2)ccc1O [Example 85, (5R,7S)-1-(3-fluorophenyl)-8-[4-hydroxy-3-(3-methylpyridin-2-yl)benzyl]-7-methyl-2-thia-1,8-diazaspiro[4.5]decan-4-one 2,2-dioxide]
1450	428	C[C@H]1C[C@@]2(C=CS(=O)(=O)N2c2cccc(F)c2)CCN1Cc1ncoc1-c1cncnc1 [Example 23, (5R,7S)-1-(3-fluorophenyl)-7-methyl-8-[(5-pyrimidin-5-yl-1,3-oxazol-4-yl)methyl]-2-thia-1,8-diazaspiro[4.5]dec-3-ene 2,2-dioxide, hydrochloride salt]
	21.9	C[C@H]1C[C@@]2(C=CS(=O)(=O)N2c2cccc(F)c2)CCN1Cc1ccc(O)c(C2CCCC2)c1 [Example 7, 2-cyclopentyl-4-{[(5R,7S)-1-(3-fluorophenyl)-7-methyl-2,2-dioxido-2-thia-1,8-diazaspiro[4.5]dec-3-en-8-yl]methyl}phenol]
62.6	10.5	C[C@H]1C[C@@]2(C=CS(=O)(=O)N2c2cccc(F)c2)CCN1Cc1ccc(O)c(C2CCCO2)c1 (single isomer, unassigned) [Example 31]
4290		C[C@H]1C[C@]2(CCN1Cc1ncoc1-c1cccnc1)CCS(=O)(=O)N2c1cccc(F)c1 [Example 32, (5R,7S)-1-(3-fluorophenyl)-7-methyl-8-[(5-pyridin-3-yl-1,3-oxazol-4-yl)methyl]-2-thia-1,8-diazaspiro[4.5]decane 2,2-dioxide, hydrochloride salt]
927		Cc1cccnc1-c1cccc(CN2CC[C@]3(C=CS(=O)(=O)N3c3cccc(F)c3)C[C@@H]2C)c1 [Example 77, (5R,7S)-1-(3-fluorophenyl)-7-methyl-8-[3-(3-methylpyridin-2-yl)benzyl]-2-thia-1,8-diazaspiro[4.5]dec-3-ene 2,2-dioxide, trifluoroacetic acid salt]
	208	C[C@H]1C[C@@]2(C=CS(=O)(=O)N2c2cccc(F)c2)CCN1Cc1ccc(O)c(C2CCCO2)c1 (single isomer, unassigned) [Example 30]
249	47.1	C[C@H]1C[C@]2(CCN1Cc1ccc(O)c(C3CCCO3)c1)CCS(=O)(=O)N2c1cccc(F)c1 (single isomer, unassigned) [Example 47]
2840	1820	Cc1ccsc1-c1ocnc1CN1CC[C@]2(C=CS(=O)(=O)N2c2cccc(F)c2)C[C@@H]1C [Example 37, (5R,7S)-1-(3-fluorophenyl)-7-methyl-8-{[5-(3-methyl-2-thienyl)-1,3-oxazol-4-yl]methyl}-2-thia-1,8-diazaspiro[4.5]dec-3-ene 2,2-dioxide]
115	13.8	Cc1cccnc1-c1cc(CN2CC[C@]3(C=CS(=O)(=O)N3c3cccc(F)c3)C[C@@H]2C)ccc1O [Example 74, 4-{[(5R,7S)-1-(3-fluorophenyl)-7-methyl-2,2-dioxido-2-thia-1,8-diazaspiro[4.5]dec-3-en-8-yl]methyl}-2-(3-methylpyridin-2-yl)phenol]
6530		Cc1ccsc1-c1ocnc1CN1CC[C@]2(CCS(=O)(=O)N2c2cccc(F)c2)C[C@@H]1C [Example 58, (5R,7S)-1-(3-fluorophenyl)-7-methyl-8-{[5-(3-methyl-2-thienyl)-1,3-oxazol-4-yl]methyl}-2-thia-1,8-diazaspiro[4.5]decane 2,2-dioxide, hydrochloride salt]
4190		C[C@H]1C[C@]2(CCN1Cc1ccc(O)c(C3CCC3)c1)CCS(=O)(=O)N2c1ccccn1 [Example 92, 2-cyclobutyl-4-{[(5R,7S)-7-methyl-2,2-dioxido-1-(pyridin-2-yl)-2-thia-1,8-diazaspiro[4.5]dec-8-yl]methyl}phenol]
	35	CC(C)Oc1cc(CN2CC[C@]3(CCS(=O)(=O)N3c3cccc(F)c3)C[C@@H]2C)ccc1O [Example 1, 4-{[(5R,7S)-1-(3-Fluorophenyl)-7-methyl-2,2-dioxido-2-thia-1,8-diazaspiro[4.5]dec-8-yl]methyl}-2-isopropoxyphenol]
2160	521	CC(C)Oc1cccc(CN2CC[C@]3(CCS(=O)(=O)N3c3cccc(F)c3)C[C@@H]2C)c1 [Example 28, (5R,7S)-1-(3-fluorophenyl)-8-(3-isopropoxybenzyl)-7-methyl-2-thia-1,8-diazaspiro[4.5]decane 2,2-dioxide]
3000	2180	C[C@H]1C[C@@]2(C=CS(=O)(=O)N2c2cccc(F)c2)CCN1Cc1ncoc1-c1cncs1 [Example 35, (5R,7S)-1-(3-fluorophenyl)-7-methyl-8-{[5-(1,3-thiazol-5-yl}-1,3-oxazol-4-yl]methyl}-2-thia-1,8-diazaspiro[4.5]dec-3-ene 2,2-dioxide]
	322	C[C@H]1C[C@@]2(C=CS(=O)(=O)N2c2cccc(F)c2)CCN1Cc1ccc(O)c(C(F)(F)F)c1 [Example 16, 4-{[(5R,7S)-1-(3-fluorophenyl)-7-methyl-2,2-dioxido-2-thia-1,8-diazaspiro[4.5]dec-3-en-8-yl]methyl}-2-(trifluoromethyl)phenol, hydrochloride salt]
25700		CC(C)Oc1cccc(CN2CC[C@@]3(C[C@@H]2C)C(=O)C(C)(C)S(=O)(=O)N3c2cccc(F)c2)c1 [Example 64, (5R,7S)-1-(3-fluorophenyl)-8-(3-isopropoxybenzyl)-3,3,7-trimethyl-2-thia-1,8-diazaspiro[4.5]decan-4-one 2,2-dioxide, hydrochloride salt]
	< 4.2	CCc1ccccc1-c1cc(CN2CC[C@]3(C=CS(=O)(=O)N3c3cccc(F)c3)C[C@@H]2C)ccc1O [Example 6, 2′-ethyl-5-{[(5R,7S)-1-(3-fluorophenyl)-7-methyl-2,2-dioxido-2-thia-1,8-diazaspiro[4.5]dec-3-en-8-yl]methyl}biphenyl-2-ol]
1020	392	Cc1ccncc1-c1cccc(CN2CC[C@]3(CCS(=O)(=O)N3c3cccc(F)c3)C[C@@H]2C)c1 [Example 55, (5R,7S)-1-(3-fluorophenyl)-7-methyl-8-[3-(4-methy|pyridin-3-yl)benzyl]-2-thia-1,8-diazaspiro[4.5]decane 2,2-dioxide, hydrochloride salt]
15400		C[C@H]1C[C@]2(CCN1Cc1ncoc1-c1cccs1)CCS(=O)(=O)N2c1cccc(F)c1 [Example 56, (5R,7S)-1-(3-fluorophenyl)-7-methyl-8-{[5-(2-thienyl)-1,3-oxazol-4-yl]methyl}-2-thia-1,8-diazaspiro[4.5]decane 2,2-dioxide, hydrochloride salt]
6810	2560	C[C@H]1C[C@@]2(C=CS(=O)(=O)N2c2cccc(F)c2)CCN1Cc1ncoc1C1CCCO1 (stereo partly drawn) [Example 70, (5R,7S)-1-(3-fluorophenyl)-7-methyl-8-{[5-(tetrahydrofuran-2-yl)-1,3-oxazol-4-yl]methyl}-2-thia-1,8-diazaspiro[4.5]dec-3-ene 2,2-dioxide]
2970	705	Cc1ncccc1-c1ocnc1CN1CC[C@]2(C=CS(=O)(=O)N2c2cccc(F)c2)C[C@@H]1C [Example 76, (5R,7S)-1-(3-fluorophenyl)-7-methyl-8-{[5-(2-methylpyridin-3-yl)-1,3-oxazol-4-yl]methyl}-2-thia-1,8-diazaspiro[4.5]dec-3-ene 2,2-dioxide]
8820		Cc1ncsc1-c1ocnc1CN1CC[C@]2(CCS(=O)(=O)N2c2cccc(F)c2)C[C@@H]1C [Example 59, (5R,7S)-1-(3-fluorophenyl)-7-methyl-8-{[5-(4-methyl-1,3-thiazol-5-yl)-1,3-oxazol-4-yt]methyl}-2-thia-1,8-diazaspiro[4.5]decane 2,2-dioxide, hydrochloride salt]
6290	2510	Cc1ncsc1-c1ocnc1CN1CC[C@]2(C=CS(=O)(=O)N2c2cccc(F)c2)C[C@@H]1C [Example 36, (5R,7S)-1-(3-fluorophenyl)-7-methyl-8-{[5-(4-methyl-1,3-thiazol-5-yl)-1,3-oxazol-4-yl]methyl}-2-thia-1,8-diazaspiro[4.5]dec-3-ene 2,2-dioxide]
	< 30.5	C[C@H]1C[C@]2(CCN1Cc1ccc(O)c(C3CCCO3)c1)CCS(=O)(=O)N2c1cccc(F)c1 (mixture of isomers) [Example 61, 4-{[(5R,7S)-1-(3-fluorophenyl)-7-methyl-2,2-dioxido-2-thia-1,8-diazaspiro[4.5]dec-8-yl]methyl}-2-(tetrahydrofuran-2-yl)phenol]
